Assay results taken from patent US10899747B2, “Biaryl piperidine amide compounds and methods of use thereof” (Athenex, Inc., priority 2017, dated 2021).

system: NFAT; assay: TCR-NFAT (luciferase-based reporter assay); assay type: cell-based; conditions: Homo sapiens; 50% inhibition concentration class
Procedure: Jurkat T cells are transiently transfected with a DNA plasmid encoding Firefly luciferase under the transcriptional control of an appropriate regulatory element that may include multimerized NFAT, AP-1, NFκB, or CREB binding sites. Cells are co-transfected with a DNA plasmid encoding Renilla luciferase under the transcriptional control of a constitutive regulatory element (e.g., HSV-TK promoter). 24 hours following transfection, cells are collected and re-seeded in 96-well plates at a final density of 1.0×10^6 cells/ml in 150 ul assay medium. Test compounds may be included at a final concentration of ≤20 uM and generally pre-incubated with cells for 30 minutes prior to stimulation. An appropriate stimulus is added, including but not limited to, a) phorbol myristate acetate (PMA) and ionomycin, or b) stimulatory antibodies to the TCR complex (e.g., anti-CD3ε) and CD28. Cell cultures are stimulated for 4-6 hours in a humidified incubator (37 degrees C./5% CO2). Cells are than lysed and the level of Firefly luciferase and Renilla Luciferase activity is determined using a standard assay (e.g., Promega's Dual Luciferase Reporter Assay System) and plate-reading luminometer. The ratio obtained by dividing activation induced Firefly luciferase activity by the constitutive Renilla luciferase activity is calculated and used as a quantitative measurement of cell activation.
Jurkat T cells were transiently transfected with a DNA plasmid encoding Firefly luciferase under the transcriptional control of an appropriate regulatory element that may include multimerized NFAT, AP-1, NFκB, or CREB binding sites. Cells were co-transfected with a DNA plasmid encoding Renilla luciferase under the transcriptional control of a constitutive regulatory element (e.g., HSV-TK promoter). 24 hours following transfection, cells were collected and re-seeded in 96-well plates at a final density of 1.0×10^6 cells/ml in 150 ul assay medium. Compound 413 was included at a final concentration of ≤20 uM and pre-incubated with cells for 30 minutes prior to stimulation. Mitogens PMA and ionomycin were added. Cell cultures were stimulated for 4-6 hours in a humidified incubator (37° C./5% CO2). Cells were then lysed and the level of Firefly luciferase and Renilla Luciferase activity was determined using a standard assay (e.g., Promega's Dual Luciferase Reporter Assay System) and plate-reading luminometer. The ratio obtained by dividing activation induced Firefly luciferase activity by the constitutive Renilla luciferase activity was calculated and used as a quantitative measurement of cell activation.

Row | Compound | IC50 [µM]
1 | O=C(COc1ccccc1-c1ccccc1)N1CCC(CCc2cccc(F)c2)CC1 [Compound 130] | 10 to 50
2 | COCc1ccc(CCC2CCN(C(=O)COc3ccccc3-c3ccccc3)CC2)cc1 [Compound 146] | 1 to 10
3 | O=C(NCc1cccnc1)c1ccc(CCC2CCN(C(=O)COc3ccccc3-c3ccccc3)CC2)cc1 [Compound 103] | 1 to 10
4 | COc1ccc(CCC2CCN(C(=O)COc3c(F)cccc3-c3ccccc3)CC2)cc1 [Compound 134] | 10 to 50
5 | O=C(COc1ccc(F)cc1-c1ccccc1)N1CCC(CCc2ccc3c(c2)OCO3)CC1 [Compound 152] | 10 to 50
6 | COc1ccc(CCC2CCN(C(=O)COc3c(C)cccc3-c3ccccc3)CC2)cc1OC [Compound 138] | 1 to 10
7 | COc1ccc(CCC2CCN(C(=O)C(C)Oc3ccccc3-c3ccccc3)CC2)cc1OC (centres unmarked) [Compound 144] | 1 to 10
8 | O=C(COc1ccccc1-c1ccccc1)N1CCC(CCc2cc(F)cc(F)c2)CC1 [Compound 106] | 1 to 10
9 | CN(C)C(=O)c1ccc(CCC2CCN(C(=O)COc3ccccc3-c3ccccc3)CC2)cc1 [Compound 147] | 1 to 10
10 | COc1ccc(CO)cc1CCC1CCN(C(=O)COc2ccccc2-c2ccccc2)CC1 [Compound 125] | 10 to 50
11 | O=C(COc1cc(F)c(F)cc1-c1ccccc1)N1CCC(CCc2ccc(F)cc2)CC1 [Compound 137] | 10 to 50
12 | O=C(COc1ccccc1-c1ccccc1)N1CCC(CCc2ccc(F)c(C(F)(F)F)c2)CC1 [Compound 121] | 10 to 50
13 | O=C(COc1cc(F)ccc1-c1ccccc1)N1CCC(CCc2ccc3c(c2)OCO3)CC1 [Compound 151] | 10 to 50
14 | Cc1cc(OC(F)(F)F)ccc1CCC1CCN(C(=O)COc2ccccc2-c2ccccc2)CC1 [Compound 116] | 10 to 50
15 | CC(C)(C)NC(=O)c1ccc(CCC2CCN(C(=O)COc3ccccc3-c3ccccc3)CC2)cc1 [Compound 149] | 1 to 10
16 | CCOc1ccc(CCC2CCN(C(=O)COc3ccccc3-c3ccccc3)CC2)cc1 [Compound 129] | 10 to 50
17 | O=C(COc1ccccc1-c1ccccc1)N1CCC(CCc2ccc(F)cc2)CC1 [Compound 107] | 10 to 50
18 | COc1ccc(CCC2CCN(C(=O)COc3c(C)cccc3-c3ccccc3)CC2)cc1 [Compound 139] | 10 to 50
19 | O=C(COc1cc(OC(F)(F)F)ccc1-c1ccccc1)N1CCC(CCc2ccc3c(c2)OCO3)CC1 [Compound 150] | 10 to 50
20 | O=C(COc1c(F)cccc1-c1ccccc1)N1CCC(CCc2ccc(F)cc2)CC1 [Compound 136] | 10 to 50
21 | Cc1cccc(-c2ccccc2)c1OCC(=O)N1CCC(CCc2ccc(F)cc2)CC1 [Compound 140] | 10 to 50
22 | O=C(NCc1ccccn1)c1ccc(CCC2CCN(C(=O)COc3ccccc3-c3ccccc3)CC2)cc1 [Compound 102] | 1 to 10
23 | O=C(CCc1cc2c(cc1-c1ccccc1)OCO2)N1CCC(CCc2ccc(O)cc2)CC1 [Compound 132] | 10 to 50
24 | COc1ccc(CCC2CCN(C(=O)COc3ccccc3-c3ccccc3)CC2)c(OC)c1 [Compound 119] | 1 to 10
25 | COc1ccc(CCC2CCN(C(=O)COc3c(F)cccc3-c3ccccc3)CC2)cc1OC [Compound 133] | 10 to 50
26 | O=C(COc1ccccc1-c1ccccc1)N1CCC(CCc2cccc(C(F)(F)F)c2)CC1 [Compound 127] | 10 to 50
27 | COc1ccc(CCC2CCN(C(=O)COc3ccccc3-c3ccccc3)CC2)cc1 [Compound 108] | 1 to 10
28 | COc1cccc(CCC2CCN(C(=O)COc3ccccc3-c3ccccc3)CC2)c1 [Compound 128] | 10 to 50
29 | O=C(COc1ccccc1-c1ccccc1)N1CCC(CCc2cccc(CO)c2)CC1 [Compound 131] | 10 to 50
